This note sets out measurements from ChEMBL document CHEMBL3860058, “Sterol-dependent membrane association of the marine sponge-derived bicyclic peptide Theonellamide A as examined by 1H NMR” (Bioorg Med Chem, 2016).

The structures appear in SMILES notation. Calls of active or inactive are those of the source. No cut-off for these calls is given here.

Data set [1] is described as follows: Antifungal activity against wild-type Candida albicans ATCC 32354 assessed as growth inhibition using alamar blue staining measured after 14 to 16 hrs by microdilution assay. It is filed as functional. In general terms: Alamar Blue is a resazurin reagent that responds to reducing activity.
Data set [2] can be described thus: Antifungal activity against Trichophyton assessed as growth inhibition using alamar blue staining measured after 14 to 16 hrs by microdilution assay. Format: functional.
A further data set has as its system Aspergillus. The data set can be described thus: Antifungal activity against Aspergillus assessed as growth inhibition using alamar blue staining measured after 14 to 16 hrs by microdilution assay. It is filed as functional.
Data set [3] is described as follows: Cytotoxicity against mouse P388 cells. Format: functional, cell-based.
A short description of data set [4]: Diffusion coefficient of the compound D2O at 11 mM and 25 degC by 1H NMR spectroscopy. The following applies: 11000 µM. Format: physicochemical.
The nature of data set [5]: Aqueous diffusion coefficient of compound in 98:2 ratio of D2O/H2O solvent system at 25 degC by 1H NMR DOSY spectroscopy. The following applies: buffer. Format: physicochemical.
A short description of data set [6]: Binding affinity to cholesterol containing DMPC-d54/DHPC-d22 bicelles assessed as […] measured at ratio of 4:10 Mn2+ to compound by 1H NMR spectroscopy relative to control.
Data set [7] can be described thus: Binding affinity to cholesterol containing POPC large unilamellar vescicle in pH 7.4 phosphate buffer by SPR analysis. Background: SPR reads the build-up and loss of mass on a sensor chip optically.
Data set [8] in a line: Binding affinity to cholesterol containing DMPC-d54/DHPC-d22 bicelles assessed as broadening of aromatic/olefinic signals at 6.5 to 7.6 ppm measured at 200 uM by 1H NMR spectroscopy.
Data set [9] in a line: Binding affinity to DMPC-d54/DHPC-d22 bicelles assessed as […] measured at ratio of 4:10 Mn2+ to compound by 1H NMR spectroscopy relative to control.
Data set [10] can be described thus: Binding affinity to cholesterol containing DMPC-d54/DHPC-d22 bicelles assessed as […] measured at ratio of 1:10 Mn2+ to compound by 1H NMR spectroscopy relative to control.
A short description of data set [11]: Induction of membrane damage in POPC/cholesterol GUV model assessed as membrane curvature at 20 uM after 13 to 55 mins by TNM-DCCH staining based confocal microscopic analysis.
Another data set has as its target Lipid bilayer. The data set can be described thus: Binding affinity to POPC large unilamellar vesicle in pH 7.4 phosphate buffer by SPR analysis.

The term IC50 denotes the concentration that inhibits the measured activity by half. For the molecule `CC(/C=C/c1ccc(Br)cc1)=C\[C@H](O)[C@@H]1CC(=O)N[C@@H](CO)C(=O)N[C@@H]2C[n+]3c[nH]c(c3)C[C@H](NC(=O)C[C@H](O)C[C@@H](C(=O)[O-])NC(=O)[C@@H](O)CNC(=O)[C@H]([C@@H](C)c3ccc(Br)cc3)NC(=O)[C@H]([C@@H](O)C(N)=O)NC(=O)[C@H](CC(N)=O)NC2=O)C(=O)N[C@@H]([C@H](C)O)C(=O)N[C@@H](CO)C(=O)N[C@@H](Cc2ccccc2)C(=O)N1`, the IC50 in data set [1] was in the range of 2000 to 7000 nM; in [2], 2000 to 7000 nM; with Aspergillus it was 2000 to 7000 nM; in data set [3], 500 to 2800 nM.

`CC(/C=C/c1ccc(Br)cc1)=C\[C@H](O)[C@@H]1CC(=O)N[C@@H](CO)C(=O)N[C@@H]2Cn3cc([n+]([C@H]4OC[C@H](O)[C@H](O)[C@H]4O)c3)C[C@H](NC(=O)C[C@H](O)C[C@@H](C(=O)[O-])NC(=O)CCNC(=O)[C@H](Cc3ccc(Br)cc3)NC(=O)[C@H]([C@@H](O)C(N)=O)NC(=O)[C@H](CC(N)=O)NC2=O)C(=O)N[C@@H]([C@H](C)O)C(=O)N[C@@H](CO)C(=O)N[C@@H](Cc2ccccc2)C(=O)N1`: the IC50 fell in the range of 2000 to 7000 nM in [1], 2000 to 7000 nM in data set [2], 2000 to 7000 nM in the data set on Aspergillus and 500 to 2800 nM in [3].

For `CC(/C=C/c1ccc(Br)cc1)=C\[C@H](O)[C@@H]1CC(=O)N[C@@H](CO)C(=O)N[C@@H]2C[n+]3c[nH]c(c3)C[C@H](NC(=O)C[C@H](O)C[C@@H](C(=O)[O-])NC(=O)CCNC(=O)[C@H](Cc3ccc(Br)cc3)NC(=O)[C@H]([C@@H](O)C(N)=O)NC(=O)[C@H](CC(N)=O)NC2=O)C(=O)N[C@@H]([C@H](C)O)C(=O)N[C@@H](CO)C(=O)N[C@@H](Cc2ccccc2)C(=O)N1`, the half-inhibitory concentration (IC50) in data set [1] lay in the range of 2000 to 7000 nM; in data set [2] it was 2000 to 7000 nM; in the data set with Aspergillus it was 2000 to 7000 nM; in data set [3], 500 to 2800 nM.

`CC(/C=C/c1ccc(Br)cc1)=C\[C@H](O)[C@@H]1CC(=O)N[C@@H](CO)C(=O)N[C@@H]2C[n+]3c[nH]c(c3)C[C@H](NC(=O)C[C@H](O)C[C@@H](C(=O)[O-])NC(=O)CCNC(=O)[C@H](Cc3ccccc3)NC(=O)[C@H]([C@@H](O)C(N)=O)NC(=O)[C@H](CC(N)=O)NC2=O)C(=O)N[C@@H]([C@H](C)O)C(=O)N[C@@H](CO)C(=O)N[C@@H](Cc2ccccc2)C(=O)N1`: the IC50 in data set [1] is 2000 to 7000 nM; in [2], 2000 to 7000 nM; in the data set with Aspergillus it was 2000 to 7000 nM; in [3], 500 to 2800 nM.

On to `OC[C@H]1O[C@@H]2O[C@H]3[C@H](O)[C@@H](O)[C@@H](O[C@H]4[C@H](O)[C@@H](O)[C@@H](O[C@H]5[C@H](O)[C@@H](O)[C@@H](O[C@H]6[C@H](O)[C@@H](O)[C@@H](O[C@H]7[C@H](O)[C@@H](O)[C@@H](O[C@H]8[C@H](O)[C@@H](O)[C@@H](O[C@H]1[C@H](O)[C@H]2O)O[C@@H]8CO)O[C@@H]7CO)O[C@@H]6CO)O[C@@H]5CO)O[C@@H]4CO)O[C@@H]3CO` [BETADEX], for which the D was found to be 2.64 ×10⁻¹⁰ m2/s in [4] and 2.63 ×10⁻¹⁰ m2/s in [5].

The term Kd denotes the equilibrium constant for the complex coming apart. A low value points to tighter binding. `CC(/C=C/c1ccccc1)=C\[C@H](O)[C@@H]1CC(=O)N[C@@H](CO)C(=O)N[C@@H]2Cn3cc([n+]([C@@H]4O[C@H](CO)[C@H](O)[C@H](O)[C@H]4O)c3)C[C@H](NC(=O)C[C@H](O)C[C@@H](C(=O)[O-])NC(=O)[C@@H](O)CNC(=O)[C@H]([C@@H](C)c3ccc(Br)cc3)NC(=O)[C@H]([C@@H](O)C(N)=O)NC(=O)[C@H](CC(N)=O)NC2=O)C(=O)N[C@@H]([C@H](C)O)C(=O)N[C@@H](CO)C(=O)N[C@@H](Cc2ccccc2)C(=O)N1`: the Ratio was 0.54 to 0.61 in data set [6], 0.36 to 0.46 in [9] and 0.85 in data set [10]. The figures for the Kd (in data set [7]; at Lipid bilayer) were 9200 nM and 420000 nM, respectively. Further, the IC50 in data set [1] is 2000 to 7000 nM; in [2], 2000 to 7000 nM; in the data set on Aspergillus, 2000 to 7000 nM; in data set [3], 500 to 2800 nM. In addition, the outcome in [8] and in data set [11] was Active.

In the case of `CC(/C=C/c1ccc(Br)cc1)=C\[C@H](O)[C@@H]1CC(=O)N[C@@H](CO)C(=O)N[C@@H]2Cn3cc([n+]([C@@H]4O[C@H](CO)[C@H](O)[C@H](O)[C@H]4O)c3)C[C@H](NC(=O)C[C@H](O)C[C@@H](C(=O)[O-])NC(=O)CCNC(=O)[C@H](Cc3ccc(Br)cc3)NC(=O)[C@H]([C@@H](O)C(N)=O)NC(=O)[C@H](CC(N)=O)NC2=O)C(=O)N[C@@H]([C@H](C)O)C(=O)N[C@@H](CO)C(=O)N[C@@H](Cc2ccccc2)C(=O)N1`, the 50% inhibitory concentration (IC50) is 2000 to 7000 nM in data set [1], 2000 to 7000 nM in data set [2], 2000 to 7000 nM in the data set on Aspergillus and 500 to 2800 nM in data set [3].
